Results reported in US12209079B2 (GENERAL INCORPORATED ASSOCIATION PHARMA VALLEY PROJECT …, priority 2017, dated 2025).

Key:
Assay type in all cases: in vivo, mouse
[1] = tested on: subcutaneous CT-26CL25 syngeneic graft of large intestine cancer; assay: Drug efficacy test, combined use of compound 1 and oxaliplatin, mice with subcutaneous CT-26CL25 syngeneic graft (Test Example 3); conditions: 40 mg/kg oral twice a day, combined with oxaliplatin 10 mg/kg i.v.; Balb/c mice; FIG. 2
Description: Drug Efficacy Test on Combined Use of Compound 1 and Oxaliplatin Using Mice with Subcutaneous CT-26CL25 Syngeneic Graft of Large Intestine Cancer
5×10^5 cells of syngeneic large intestine cancer cell line CT26CL25 were subcutaneously transplanted to each of 8-week-old female Balb/c mice. The mice were divided into 4 groups each involving 8 individuals 10 days later when the average tumor size was 185 mm^3. The oral administration (solvent for oral administration and 40 mg/kg compound 1 were administered twice a day at a 5-hour interval from days 1 to 5 and days 8 to 12) and intravenous administration (5% glucose solution and 10 mg/kg oxaliplatin were administered once a day on days 1 and 8) of each agent were started. Then, the major axis and minor axis of subcutaneous tumor were measured three times a week using calipers, and a mean and standard error of the mean of the ratios of the calculated volumes to the volumes at the administration start day in each group were plotted. The calculation expression was Volume (mm^3)=[Width^2 (mm^2)×Length (mm)]/2. Compound 1 was dissolved in a solvent for oral administration of DMSO:PEG400:PBS=5:20:75.
∘: the solvent for oral administration and the 5% glucose solution, •: the solvent for oral administration and oxaliplatin, Δ: compound 1 and the 5% glucose solution, and ▴: compound 1 and oxaliplatin.

[2] = tested on: subcutaneous CT-26WT syngeneic graft of large intestine cancer; assay: Drug efficacy test, combined use with anti-PD-1 antibody, mice with subcutaneous CT-26WT syngeneic graft (Test Example 2); conditions: 40 mg/kg oral twice a day, combined with anti-PD-1 antibody 200 μg/individual i.p.; Balb/c mice; FIG. 1
Description: Drug Efficacy Test on Combined Use of IDO/TDO Inhibitor and Anti-PD-1 Antibody Using Mice with Subcutaneous CT-26WT Syngeneic Graft of Large Intestine Cancer
5×10^5 cells of syngeneic large intestine cancer cell line CT26WT were subcutaneously transplanted to each of 6-week-old female Balb/c mice. The mice were divided into 6 groups each involving 6 to 8 individuals 11 days later when the average tumor size was 212 mm^3. The oral administration (solvent for oral administration and 40 mg/kg each of epacadostat and compound 1 were administered twice a day at a 5-hour interval from days 1 to 5, days 8 to 12, and days 15 to 19) and intraperitoneal administration (PBS and 200 μg/individual of an anti-PD1 antibody were administered once a day on days 1, 4, 8, 11, 15, and 18) of each agent were started. Then, the major axis and minor axis of subcutaneous tumor were measured three times a week using calipers, and a mean and standard error of the mean of the calculated volumes in each group were plotted. The calculation expression was Volume (mm^3)=[Width^2 (mm^2)×Length (mm)]/2. The oral administration agent was dissolved in a solvent for oral administration of DMSO:PEG400:PBS=5:20:75. […]

[3] = tested on: subcutaneous CT-26WT syngeneic graft of large intestine cancer; assay: Drug efficacy test, combined use of compound 29 or 38 and anti-PD1 antibody, mice with subcutaneous CT-26WT syngeneic graft (Test Example 6); conditions: 40 mg/kg oral twice a day, combined with anti-PD1 antibody 200 μg/individual i.p.; Balb/c mice; FIG. 5
Description: Drug Efficacy Test on Combined Use of Compound 29 or 38 and Anti-PD1 Antibody Using Mice with Subcutaneous CT-26WT Syngeneic Graft of Large Intestine Cancer
5×10^5 cells of syngeneic large intestine cancer cell line CT26WT were subcutaneously transplanted to each of 6-week-old female Balb/c mice. The mice were divided into 6 groups each involving 6 individuals 10 days later when the average tumor size was 250 mm^3. The oral administration (solvent for oral administration and 40 mg/kg each of compounds 29 and 38 were administered twice a day at a 5-hour interval from days 1 to 5 and days 8 to 12) and intraperitoneal administration (PBS and 200 μg/individual of an anti-PD1 antibody were administered once a day on days 1 and 8) of each agent were started. Then, the major axis and minor axis of subcutaneous tumor were measured three times a week using calipers, and a mean and standard error of the mean of the calculated volumes in each group were plotted. The calculation expression was Volume (mm^3)=[[…]×Length (mm)]/2. Compound 29 or 38 was suspended in 0.5% methyl cellulose as a solvent for oral administration. […]

[4] = tested on: subcutaneous CT-26WT syngeneic graft of large intestine cancer; assay: Drug efficacy test, combined use of compound 103 and anti-PD1 antibody, mice with subcutaneous CT-26WT syngeneic graft (Test Example 7); conditions: 40 mg/kg oral twice a day, combined with anti-PD1 antibody 200 μg/individual i.p.; Balb/c mice; FIG. 6
Description: Drug Efficacy Test on Combined Use of Compound 103 and Anti-PD1 Antibody Using Mice with Subcutaneous CT-26WT Syngeneic Graft of Large Intestine Cancer
5×10^5 cells of syngeneic large intestine cancer cell line CT26WT were subcutaneously transplanted to each of 6-week-old female Balb/c mice. The mice were divided into 3 groups each involving 8 individuals 10 days later when the average tumor size was 176 mm^3. The oral administration (40 mg/kg of compound 103 was administered twice a day at a 5-hour interval from days 1 to 5 and days 8 to 12), intravenous administration (5% glucose solution was administered once a day on days 1 and 8) and intraperitoneal administration (PBS and 200 μg/individual of an anti-PD1 antibody were administered once a day on days 1 and 8) of each agent were started. Then, the major axis and minor axis of subcutaneous tumor were measured three times a week using calipers, and a mean and standard error of the mean of the calculated volumes in each group were plotted. The calculation expression was Volume (mm^3)=[Width^2 (mm^2)×Length (mm)]/2. Compound 103 was suspended in 0.5% methyl cellulose.
• with the solid line: the 5% glucose solution and PBS, X with the dotted line: the 5% glucose solution and the anti-PD1 antibody, and ∘ with the solid line: compound 103 and the anti-PD1 antibody.

Structure (SMILES): Cl.Cl.N=C(N)SCc1ccccc1CSC(=N)N [Compound 1, 1,2-phenylenebis(methylene) dicarbamimidothioate dihydrochloride]
- tumor growth (ratio of tumor volume to start day) [1]: can suppress tumor growth
- tumor growth (tumor volume) [2]: can suppress tumor growth

Structure (SMILES): c1ccc(CSC2=NCN(CC3CCCCC3)CN2)c(CSC2=NCN(CC3CCCCC3)CN2)c1 [Compound 29, 1,2-bis(((5-(cyclohexylmethyl)-1,4,5,6-tetrahydro-1,3,5-triazin-2-yl)thio)methyl)benzene]
- tumor growth (tumor volume) [3]: can suppress tumor growth

Structure (SMILES): Br.N#Cc1ccc(CNC(=O)c2cc(Br)ccc2CSC(=N)N)cc1 [Compound 103, 4-Bromo-2-((4-cyanobenzyl)carbamoyl)benzyl carbamimidothioate hydrobromide]
- tumor growth (tumor volume) [4]: can suppress tumor growth
